We go through two compounds from patent US6559101B2, “N- (5, 7-dimethoxy [1, 2, 4] triazolo [1, 5-a] pyrimidin-2-yl) arylsulfonamide compounds and their use as herbicides” (Dow AgroSciences LLC, priority 2000, dated 2003).

Common to all, as to type: in vivo
In experiment [1] the test system is wild buckwheat (Polygonum convolvulus). As to the kind of experiment: Postemergence herbicidal activity. The conditions noted are these: scored after 2 weeks, 0 no injury, 100 complete kill. Summed up:
(§1)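 Seedlings at first–second true leaf stage (grown 7-21 days, greenhouse 23-29° C. day) sprayed to coverage with compound in aqueous acetone/DMSO/isopropanol/crop oil/surfactant carrier; 1 ppm ≈ 1 g/ha. Sub-irrigated; injury scored visually after 2 weeks versus untreated plants, 0 (none) to 100% (complete kill).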

Experiment [2] deals with Rox orange sorghum (Sorghum bicolor). As to the kind of experiment: Postemergence herbicidal activity. The conditions noted are these: scored after 2 weeks, 0 no injury, 100 complete kill. An outline of the steps:
as §1

The subject of experiment [3] is velvetleaf (Abutilion theophrasti). As to the kind of experiment: Postemergence herbicidal activity. The following applies: scored after 2 weeks, 0 no injury, 100 complete kill. Summed up: as §1
In experiment [4] the test system is wild oats (Avena fatua). Description: Postemergence herbicidal activity. The conditions noted are these: scored after 2 weeks, 0 no injury, 100 complete kill. Summed up: as §1
Experiment [5] deals with morningglory (Ipomoea hederacea). As to the kind of experiment: Postemergence herbicidal activity. The conditions noted are these: scored after 2 weeks, 0 no injury, 100 complete kill. An outline of the steps: as §1
The next experiment deals with viola (Viola tricolor). Description: Postemergence herbicidal activity. The following applies: scored after 2 weeks, 0 no injury, 100 complete kill. An outline of the steps:
as §1

In experiment [6] the test system is pigweed (Amaranthus retroflexus). As to the kind of experiment: Postemergence herbicidal activity. The following applies: scored after 2 weeks, 0 no injury, 100 complete kill. Summed up: as §1
The subject of experiment [7] is blackgrass (Alopecurus myosuroides). As to the kind of experiment: Postemergence herbicidal activity. The following applies: scored after 2 weeks, 0 no injury, 100 complete kill. Summed up:
as §1

For experiment [8], the system named is giant foxtail (Setaria faberi). As to the kind of experiment: Postemergence herbicidal activity. The following applies: scored after 2 weeks, 0 no injury, 100 complete kill. An outline of the steps:
as §1

The subject of experiment [9] is lambsquarters (Chenopodium album). As to the kind of experiment: Postemergence herbicidal activity. The conditions noted are these: scored after 2 weeks, 0 no injury, 100 complete kill. Summed up: as §1
The subject of experiment [10] is cocklebur (Xanthium strumarium). As to the kind of experiment: Postemergence herbicidal activity. The following applies: scored after 2 weeks, 0 no injury, 100 complete kill. An outline of the steps: as §1
Experiment [11] concerns chickweed (Stellaria media). As to the kind of experiment: Postemergence herbicidal activity. The following applies: scored after 2 weeks, 0 no injury, 100 complete kill. Summed up: as §1
Experiment [12] concerns crabgrass (Digitaria sanguinalis). Description: Preemergence herbicidal activity. The following applies: scored after 3 weeks, 0 no injury, 100 complete kill or no germination. Summed up:
(§2)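 Pre-emergence test. Seeds sown, soil sprayed with compound (acetone/DMSO stock diluted in water + 0.1% Tween 155), top dose 4.48 kg/ha. Greenhouse ~15 h light, 23-29/22-28 °C day/night. Visual % injury vs untreated at 3 wk.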

Experiment [13] relates to barnyardgrass (Echinochloa crus-galli). As to the kind of experiment: Preemergence herbicidal activity. The following applies: scored after 3 weeks, 0 no injury, 100 complete kill or no germination. An outline of the steps: as §2
Experiment [14] has as its system Rox orange sorghum (Sorghum bicolor). Description: Preemergence herbicidal activity. The following applies: scored after 3 weeks, 0 no injury, 100 complete kill or no germination. Summed up: as §2
Experiment [15] has as its system velvetleaf (Abutilion theophrasti). Description: Preemergence herbicidal activity. The following applies: scored after 3 weeks, 0 no injury, 100 complete kill or no germination. Summed up:
as §2

Experiment [16] relates to wild oats (Avena fatua). Description: Preemergence herbicidal activity. The following applies: scored after 3 weeks, 0 no injury, 100 complete kill or no germination. An outline of the steps:
as §2

The subject of experiment [17] is morningglory (Ipomoea hederacea). Description: Preemergence herbicidal activity. The conditions noted are these: scored after 3 weeks, 0 no injury, 100 complete kill or no germination. An outline of the steps: as §2
In experiment [18] the test system is wild poinsettia (Euphorbia heterophylla). As to the kind of experiment: Preemergence herbicidal activity. The conditions noted are these: scored after 3 weeks, 0 no injury, 100 complete kill or no germination. Summed up:
as §2

For experiment [19], the system named is pigweed (Amaranthus retroflexus). As to the kind of experiment: Preemergence herbicidal activity. The conditions noted are these: scored after 3 weeks, 0 no injury, 100 complete kill or no germination. An outline of the steps:
as §2

The subject of experiment [20] is blackgrass (Alopecurus myosuroides). Description: Preemergence herbicidal activity. The conditions noted are these: scored after 3 weeks, 0 no injury, 100 complete kill or no germination. An outline of the steps: as §2
In experiment [21] the test system is giant foxtail (Setaria faberi). As to the kind of experiment: Preemergence herbicidal activity. The conditions noted are these: scored after 3 weeks, 0 no injury, 100 complete kill or no germination. An outline of the steps: as §2
Experiment [22] has as its system lambsquarters (Chenopodium album). As to the kind of experiment: Preemergence herbicidal activity. The conditions noted are these: scored after 3 weeks, 0 no injury, 100 complete kill or no germination. An outline of the steps: as §2
The test system of experiment [23] is cocklebur (Xanthium strumarium). Description: Preemergence herbicidal activity. The following applies: scored after 3 weeks, 0 no injury, 100 complete kill or no germination. An outline of the steps:
as §2

For the compound `COc1cc(OC)n2nc(NS(=O)(=O)c3c(C(F)(F)F)ccnc3F)nc2n1` [Compound 16], in experiment [1] (125 ppm), the “Postemergence herbicidal activity POLCO” value was found to be 20%. Further, the “Postemergence herbicidal activity SORBI” value in [2] (125 ppm) came out at 50%. In experiment [3] (125 ppm), the “Postemergence herbicidal activity ABUTH” value stood at 10%. Also, the “Postemergence herbicidal activity AVEFA” value with wild oats (Avena fatua) [4] (125 ppm) turned out to be 50%. Further, the “Postemergence herbicidal activity IPOHE” value in [5] (125 ppm) turned out to be 20%. In addition, in the experiment with viola (Viola tricolor) (125 ppm), the “Postemergence herbicidal activity VIOTR” value stood at 50%. Besides, in [6] (125 ppm), the “Postemergence herbicidal activity AMARE” value amounted to 75%. The “Postemergence herbicidal activity ALOMY” value in experiment [7] (125 ppm) is reported as 60%. Also, in experiment [8] (125 ppm), the “Postemergence herbicidal activity SETFA” value came to 75%. The “Postemergence herbicidal activity CHEAL” value in experiment [9] (125 ppm) turned out to be 40%. Further, the “Postemergence herbicidal activity XANST” value in experiment [10] (125 ppm) turned out to be 0%. Also, the “Postemergence herbicidal activity STEME” value in experiment [11] (125 ppm) was determined as 60%. In addition, the “Preemergence herbicidal activity DIGSA” value in experiment [12] (140 g/Ha) is 0%. In [13] (140 g/Ha), the “Preemergence herbicidal activity ECHCG” value worked out at 0%. Moreover, the “Preemergence herbicidal activity SORBI” value in [14] (140 g/Ha) amounted to 40%. In experiment [15] (140 g/Ha), the “Preemergence herbicidal activity ABUTH” value is on record as 20%. Moreover, the “Preemergence herbicidal activity AVEFA” value with wild oats (Avena fatua) [16] (140 g/Ha) was 30%. Moreover, the “Preemergence herbicidal activity IPOHE” value in experiment [17] (140 g/Ha) is given as 0%. Moreover, the “Preemergence herbicidal activity EPHHL” value in experiment [18] (140 g/Ha) was determined as 0%. The “Preemergence herbicidal activity AMARE” value in experiment [19] (140 g/Ha) is reported as 85%. Also, the “Preemergence herbicidal activity ALOMY” value in experiment [20] (140 g/Ha) is listed as 40%. In addition, the “Preemergence herbicidal activity SETFA” value in [21] (140 g/Ha) worked out at 10%. For the same compound, in experiment [22] (140 g/Ha), the “Preemergence herbicidal activity CHEAL” value came out at 20%. Besides, the “Preemergence herbicidal activity XANST” value in experiment [23] (140 g/Ha) was found to be 40%.

For the compound `COc1cc(OC)n2nc(NS(=O)(=O)c3c(C(F)(F)C(F)(F)F)ccnc3OC)nc2n1` [Compound 18], the “Postemergence herbicidal activity POLCO” value in experiment [1] (31.3 ppm) came to 60%. In addition, in experiment [2] (31.3 ppm), the “Postemergence herbicidal activity SORBI” value worked out at 90%. The “Postemergence herbicidal activity ABUTH” value in [3] (31.3 ppm) was 90%. Moreover, the “Postemergence herbicidal activity AVEFA” value in the experiment on wild oats (Avena fatua) [4] (31.3 ppm) amounted to 50%. Besides, the “Postemergence herbicidal activity IPOHE” value in experiment [5] (31.3 ppm) worked out at 70%. The “Postemergence herbicidal activity VIOTR” value in the experiment with viola (Viola tricolor) (31.3 ppm) is 80%. The “Postemergence herbicidal activity AMARE” value in experiment [6] (31.3 ppm) was determined as 100%. Besides, in experiment [7] (31.3 ppm), the “Postemergence herbicidal activity ALOMY” value was determined as 65%. Further, the “Postemergence herbicidal activity SETFA” value in experiment [8] (31.3 ppm) is on record as 85%. Besides, in experiment [9] (31.3 ppm), the “Postemergence herbicidal activity CHEAL” value was 95%. Besides, the “Postemergence herbicidal activity XANST” value in experiment [10] (31.3 ppm) is listed as 85%. The “Postemergence herbicidal activity STEME” value in experiment [11] (31.3 ppm) is given as 100%. The “Preemergence herbicidal activity DIGSA” value in [12] (35 g/Ha) is 100%. Also, the “Preemergence herbicidal activity ECHCG” value in experiment [13] (35 g/Ha) was 90%. Besides, the “Preemergence herbicidal activity SORBI” value in experiment [14] (35 g/Ha) amounted to 100%. Also, the “Preemergence herbicidal activity ABUTH” value in experiment [15] (35 g/Ha) stood at 95%. Also, in the experiment with wild oats (Avena fatua) [16] (35 g/Ha), the “Preemergence herbicidal activity AVEFA” value was determined as 70%. Moreover, the “Preemergence herbicidal activity IPOHE” value in experiment [17] (35 g/Ha) came to 90%. The “Preemergence herbicidal activity EPHHL” value in experiment [18] (35 g/Ha) is given as 70%. Moreover, the “Preemergence herbicidal activity AMARE” value in experiment [19] (35 g/Ha) amounted to 100%. Also, in experiment [20] (35 g/Ha), the “Preemergence herbicidal activity ALOMY” value turned out to be 100%. Also, the “Preemergence herbicidal activity SETFA” value in [21] (35 g/Ha) is 100%. Further, the “Preemergence herbicidal activity CHEAL” value in [22] (35 g/Ha) is given as 100%. Moreover, the “Preemergence herbicidal activity XANST” value in experiment [23] (35 g/Ha) is reported as 70%.
